Measurements reported in patent US20240382455A1, “COMPOSITION CONTAINING 1H-PYRAZOLE-3-AMIDE-BASED COMPOUND DERIVATIVE FOR PREVENTION OR TREATMENT OF FIBROSIS” (TSD LIFE SCIENCES CO., LTD., priority 2017, published 2024).

Assays:
Format in all cases: in vivo, C57BL/6 mice
[1] = test system: αSMA, TGF-β1, COL6A3, and LOX mRNAs; test: Quantitative real-time PCR on liver tissue of fibrosis model mice; settings: liver tissue (FIG. 5); 10 mg/kg intraperitoneal for 4 weeks; almost similar to rimonabant 10 mg/kg positive control
Protocol: (§1) First, after stabilizing 5-week old male C57BL/6 mice for one week, a fibrosis model was constructed by feeding the mice with a high fat diet and a high-carbohydrate diet for 12 weeks, thereby inducing fibrosis of the mice. After that, the mice were divided into total four groups, and a vehicle (negative control group), 10mg/kg of rimonabant (positive control group), 10 mg/kg of a compound 1, and 10mg/kg of a compound 2 were administered to each of the groups by intraperitoneal injection for 4 weeks. In order to perform an experimental process, the mice were sacrificed, and epididymal adipose and liver tissues were extracted from the sacrificed mice.
(§2) After separating RNA from the extracted epididymal adipose and liver tissues by using a Trizol reagent (Gibco), cDNA templates were produced by using reverse transcriptase. After injecting such produced cDNA templates into SYBR green dyes by using gene-specific nucleotide primers, PCR products were analyzed to obtain analyzed mRNAs by amplifying the cDNA templates injected into SYBR green dyes with a real-time multiplexing amplification system (CFX connect™, Bio-Rad). At this time, the analyzed mRNAs were αSMA, TGF-β1, COL6A3, and LOX mRNAs, and used primer sequences are as described in the following [Table 1].

[2] = test system: collagen permeated into liver tissue of fibrosis model mice; test: Picrosirius staining of liver tissue of fibrosis model mice; settings: liver tissue (FIG. 4); high fat and high-carbohydrate diet mice; 10 mg/kg intraperitoneal for 4 weeks; compared to vehicle treatment group
Protocol: as §1
(§3) After fixing and embedding the extracted epididymal adipose and liver tissues, paraffin sections were manufactured by slicing the embedded epididymal adipose and liver tissues. After that, fibrosis degrees were analyzed by staining collagen permeated into each of the tissues by using a picrosirius red stain kit.

[3] = test system: αSMA, TGF-β1, COL6A3, and LOX mRNAs; test: Quantitative real-time PCR on epididymal adipose tissue of fibrosis model mice; settings: adipose tissue (FIG. 3); 10 mg/kg intraperitoneal for 4 weeks; almost similar to rimonabant 10 mg/kg positive control
Protocol: as §1, §2

[4] = test system: collagen permeated into epididymal adipose tissue of fibrosis model mice; test: Picrosirius staining of epididymal adipose tissue of fibrosis model mice; settings: adipose tissue (FIG. 2); high fat and high-carbohydrate diet mice; 10 mg/kg intraperitoneal for 4 weeks; compared to vehicle treatment group
Protocol: as §1, §3

SMILES	expression of four gene mRNAs (αSMA, TGF-β1, COL6A3, LOX) [1]	accumulation degrees stained with red color (picrosirius, collagen) [2]	expression of four gene mRNAs (αSMA, TGF-β1, COL6A3, LOX) [3]	accumulation degrees stained with red color (picrosirius, collagen) [4]
Cc1c(/C=C/C(=O)NCc2cccc(Cl)c2)nn(-c2ccc(Cl)cc2Cl)c1-c1ccc(Cl)cc1 [compound 1, (E)-N-(3-chlorobenzyl)-3-(5-(4-chlorophenyl)-1-(2,4-dichlorophenyl)-4-methyl-1H-pyrazole-3-yl)acrylamide]	inhibited	reduced	inhibited	reduced
Cc1c(C(=O)C(=O)NCCO)nn(-c2ccc(Cl)cc2Cl)c1-c1ccc(Cl)cc1 [compound 2, 2-(5-(4-chlorophenyl)-1-(2,4-dichlorophenyl)-4-methyl-1H-pyrazole-3-yl)-N-(2-hydroxyethyl)-2-oxo-acetamide]	inhibited	reduced	inhibited	reduced
